What all share (experiment): Eurofins kinase selectivity profile against 380 other human recombinant kinases (Table S2)
Holding throughout (type): biochemical

Experiment [1] deals with T1, 380 human recombinant protein kinases (Homo sapiens, UniProt O15530).
T1 construct: purchased Eurofins (Celle Lévescault)
T1 sequence (O15530 1-556): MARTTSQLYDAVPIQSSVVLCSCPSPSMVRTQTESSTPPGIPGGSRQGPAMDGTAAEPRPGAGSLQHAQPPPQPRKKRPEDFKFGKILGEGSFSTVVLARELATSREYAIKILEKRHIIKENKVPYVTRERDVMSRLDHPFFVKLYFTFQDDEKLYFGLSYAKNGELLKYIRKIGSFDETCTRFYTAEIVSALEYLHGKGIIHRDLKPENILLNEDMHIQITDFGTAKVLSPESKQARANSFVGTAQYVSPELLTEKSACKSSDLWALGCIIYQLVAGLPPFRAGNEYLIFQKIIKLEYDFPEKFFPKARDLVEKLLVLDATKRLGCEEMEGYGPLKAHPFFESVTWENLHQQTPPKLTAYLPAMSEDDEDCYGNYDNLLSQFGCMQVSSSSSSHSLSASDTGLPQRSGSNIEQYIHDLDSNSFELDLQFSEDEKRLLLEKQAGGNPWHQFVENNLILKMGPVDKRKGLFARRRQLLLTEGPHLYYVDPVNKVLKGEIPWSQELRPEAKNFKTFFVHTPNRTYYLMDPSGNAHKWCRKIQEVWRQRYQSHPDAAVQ
The note with it: PDK1(h), read-out: Inhibition rate. The essentials:
(§1)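 Off-target profiling: one compound assayed by a commercial provider over 380 recombinant human protein kinases at various concentrations.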

Experiment [2] addresses T2, 380 human recombinant protein kinases (Homo sapiens, UniProt Q02156).
T2 construct: purchased Eurofins (Celle Lévescault)
T2 sequence (Q02156 1-737): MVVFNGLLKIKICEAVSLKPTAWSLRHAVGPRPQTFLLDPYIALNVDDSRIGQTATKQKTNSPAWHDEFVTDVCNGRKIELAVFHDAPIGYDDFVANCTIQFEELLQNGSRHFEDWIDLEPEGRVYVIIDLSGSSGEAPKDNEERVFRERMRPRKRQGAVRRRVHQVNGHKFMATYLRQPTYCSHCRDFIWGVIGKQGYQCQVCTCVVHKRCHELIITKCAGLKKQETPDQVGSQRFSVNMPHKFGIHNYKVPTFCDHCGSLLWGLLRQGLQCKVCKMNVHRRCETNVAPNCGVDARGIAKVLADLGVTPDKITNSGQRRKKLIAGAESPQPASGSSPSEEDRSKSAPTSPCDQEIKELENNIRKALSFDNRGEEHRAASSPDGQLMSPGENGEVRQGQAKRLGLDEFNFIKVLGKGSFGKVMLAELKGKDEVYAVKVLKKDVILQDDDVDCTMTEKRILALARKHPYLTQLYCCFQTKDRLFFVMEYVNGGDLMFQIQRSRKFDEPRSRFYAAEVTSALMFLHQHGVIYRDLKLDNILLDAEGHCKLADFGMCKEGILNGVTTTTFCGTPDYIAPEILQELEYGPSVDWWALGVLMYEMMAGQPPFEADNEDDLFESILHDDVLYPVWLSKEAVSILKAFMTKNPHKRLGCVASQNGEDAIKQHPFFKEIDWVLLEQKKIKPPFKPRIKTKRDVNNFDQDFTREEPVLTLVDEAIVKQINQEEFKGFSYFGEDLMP
The note with it: PKCε(h), read-out: Inhibition rate. The essentials: as §1

Experiment [3] addresses T3, 380 human recombinant protein kinases (Homo sapiens, UniProt P04049).
T3 construct: purchased Eurofins (Celle Lévescault)
The note with it: c-RAF(h), read-out: Inhibition rate. The method in brief:
as §1

For experiment [4], the target named is T4, 380 human recombinant protein kinases (Homo sapiens, UniProt P43403).
T4 construct: purchased Eurofins (Celle Lévescault)
T4 sequence (P43403 1-619): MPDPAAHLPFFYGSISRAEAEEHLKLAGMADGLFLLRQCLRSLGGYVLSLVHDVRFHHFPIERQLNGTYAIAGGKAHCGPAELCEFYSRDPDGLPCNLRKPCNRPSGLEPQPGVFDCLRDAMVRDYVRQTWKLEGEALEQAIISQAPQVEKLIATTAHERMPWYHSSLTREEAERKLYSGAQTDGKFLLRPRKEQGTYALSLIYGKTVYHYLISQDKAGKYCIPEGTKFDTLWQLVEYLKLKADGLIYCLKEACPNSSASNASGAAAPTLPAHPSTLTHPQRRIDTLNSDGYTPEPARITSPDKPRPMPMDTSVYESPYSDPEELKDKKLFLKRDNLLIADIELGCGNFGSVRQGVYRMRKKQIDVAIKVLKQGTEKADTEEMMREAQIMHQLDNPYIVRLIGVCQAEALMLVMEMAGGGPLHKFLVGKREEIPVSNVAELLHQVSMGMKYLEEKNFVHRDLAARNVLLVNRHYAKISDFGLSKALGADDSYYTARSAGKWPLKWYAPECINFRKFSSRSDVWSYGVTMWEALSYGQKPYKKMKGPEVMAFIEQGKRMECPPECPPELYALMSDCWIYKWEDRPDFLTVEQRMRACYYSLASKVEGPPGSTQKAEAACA
The following applies: ZAP-70(h), read-out: Inhibition rate (%). The essentials:
as §1

The target of experiment [5] is T5, 380 human recombinant protein kinases (Homo sapiens, UniProt O96017).
T5 construct: purchased Eurofins (Celle Lévescault)
The following applies: CHK2(h), read-out: Inhibition rate. The method in brief: as §1

T3 sequence (P04049 whole entry): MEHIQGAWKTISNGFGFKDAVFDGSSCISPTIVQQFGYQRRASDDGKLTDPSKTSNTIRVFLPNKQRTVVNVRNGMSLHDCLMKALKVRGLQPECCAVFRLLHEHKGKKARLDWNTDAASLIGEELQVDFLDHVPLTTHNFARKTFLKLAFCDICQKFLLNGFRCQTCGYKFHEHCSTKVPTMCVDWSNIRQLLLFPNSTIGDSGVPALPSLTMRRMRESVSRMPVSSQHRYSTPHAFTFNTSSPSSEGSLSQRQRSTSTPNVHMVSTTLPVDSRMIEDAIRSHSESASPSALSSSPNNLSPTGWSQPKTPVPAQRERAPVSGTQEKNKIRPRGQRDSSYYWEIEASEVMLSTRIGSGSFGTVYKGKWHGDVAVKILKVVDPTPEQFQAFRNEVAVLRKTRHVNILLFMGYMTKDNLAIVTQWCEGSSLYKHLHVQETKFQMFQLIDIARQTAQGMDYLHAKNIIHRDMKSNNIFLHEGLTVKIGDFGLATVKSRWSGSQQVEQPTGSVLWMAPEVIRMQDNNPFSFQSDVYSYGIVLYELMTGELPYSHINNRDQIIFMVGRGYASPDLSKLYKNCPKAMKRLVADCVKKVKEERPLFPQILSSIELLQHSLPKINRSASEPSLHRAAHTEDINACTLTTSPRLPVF
T5 sequence (O96017 whole entry): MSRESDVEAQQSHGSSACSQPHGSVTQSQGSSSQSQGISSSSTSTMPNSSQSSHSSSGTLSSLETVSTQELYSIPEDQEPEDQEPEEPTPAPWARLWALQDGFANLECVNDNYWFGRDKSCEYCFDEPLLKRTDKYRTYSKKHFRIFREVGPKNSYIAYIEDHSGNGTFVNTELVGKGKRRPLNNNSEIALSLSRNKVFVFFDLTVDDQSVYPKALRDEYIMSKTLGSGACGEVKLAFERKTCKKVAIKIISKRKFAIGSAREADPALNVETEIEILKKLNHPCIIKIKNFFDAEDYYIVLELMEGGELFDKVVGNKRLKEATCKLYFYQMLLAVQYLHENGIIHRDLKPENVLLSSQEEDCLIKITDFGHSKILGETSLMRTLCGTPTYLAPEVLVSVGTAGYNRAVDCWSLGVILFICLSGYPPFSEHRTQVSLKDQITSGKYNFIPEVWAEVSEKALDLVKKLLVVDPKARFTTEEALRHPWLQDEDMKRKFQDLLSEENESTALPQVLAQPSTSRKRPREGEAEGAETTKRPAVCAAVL

As to `C=CC(=O)Nc1cc(-c2cc(-c3cc4c([nH]3)CCNC4=O)ccn2)ccc1OC(F)(F)F` [compound 11], the inhibition at 0.01 µM in experiment [1] (10 nM) was -9%; in experiment [2] (10 nM), 1%; in experiment [3] (10 nM), -1%; in experiment [4] (10 nM), 8%; in experiment [5] (10 nM), 3%. Besides, the inhibition at 0.1 µM was -2% in experiment [1] (100 nM); 12% in experiment [2] (100 nM); 2% in experiment [3] (100 nM); 0% in experiment [4] (100 nM); 16% in experiment [5] (100 nM). Also, the inhibition at 1 µM is 3% in experiment [1] (1000 nM); 13% in experiment [2] (1000 nM); 1% in experiment [3] (1000 nM); -13% in experiment [4] (1000 nM); 55% in experiment [5] (1000 nM).

(Values after paper PMC11233931, “Remodeling tumor‐associated macrophage for anti‐cancer effects by rational design of irreversible inhibition of mitogen‐activated protein kinase‐activated protein kinase 2” (MedComm, 2024).)
